Measurements from ChEMBL document CHEMBL4342450, “Antitumor Activity of Ohmyungsamycin A through the Regulation of the Skp2-p27 Axis and MCM4 in Human Colorectal Cancer Cells” (J Nat Prod, 2020).
The source made the active and inactive calls. No cut-off for these calls is given here. *1 amine or outer side, *2 acyl side, *3 side chain or, on linkers, in order; H or OH if unused. Where a SMILES comes first, the peptide text is derived from it. Bridges are numbered along the chain shown (N, C = ends). [ ]: non-standard residue; d: D form. Phe(3R-OH) = O=C([C@@H](N[*:1])[C@H](O[*:3])c1ccccc1)[*:2]; NMeTrp(4-OMe) = CN[C@@H](Cc1c[nH]c2cccc(OC)c12)C(=O)O; NMeT = CN[C@H](C(=O)O)[C@@H](C)O; NMeL = CN[C@@H](CC(C)C)C(=O)O; NMeV = CN[C@H](C(=O)O)C(C)C

Experiments:
[1] = tested on: HCT-116; assay: Induction of apoptosis in human HCT116 cells assessed as reduction in uncleaved full length caspase 8 level after 24 hrs by Western blot analysis; format: functional, cell-based
[2] = tested on: HCT-116; assay: Downregulation of cyclin E2 mRNA expression in human HCT116 cells after 12 hrs by RT-PCR method; format: functional, cell-based
[3] = tested on: HCT-116; assay: Downregulation of CCNE2 gene expression in human HCT116 cells assessed as fold change at 15 uM incubated for 24 hrs by cDNA microarray analysis relative to control; format: functional
[4] = tested on: HCT-116; assay: Induction of cell cycle arrest in human HCT116 cells assessed as accumulation at G2/M phase at 10 uM incubated for 18 hrs by propidium iodide staining based flow cytometry (reference value: 25.1%); format: functional
[5] = tested on: Mus musculus; assay: In vivo modulation of MCM4 in tumor of BALB/c nude mouse xenografted with human HCT116 cells assessed as downregulation of MCM4 mRNA level at 5 to 10 m/kg, ip administered thrice a week for 3.5 weeks by RT-PCR method; format: functional, organism-based
[6] = tested on: HCT-116; assay: Modulation of Skp2-p27 Axis in human HCT116 cells assessed as downregulation of Skp2 expression at 5 to 20 uM after 24 hrs by Western blot analysis; format: functional, cell-based
[7] = tested on: HCT-116; assay: Induction of apoptosis in human HCT116 cells assessed as reduction in survivin level at 5 to 20 uM after 24 hrs by Western blot analysis; format: functional, cell-based
[8] = tested on: HCT-116; assay: Induction of apoptosis in human HCT116 cells assessed as reduction in uncleaved full length caspase 7 level after 24 hrs by Western blot analysis; format: functional, cell-based
[9] = tested on: HCT-116; assay: Downregulation of DSCC1 gene expression in human HCT116 cells assessed as fold change at 15 uM incubated for 24 hrs by cDNA microarray analysis relative to control; format: functional
[10] = tested on: HCT-116; assay: Downregulation of INSIG1 gene expression in human HCT116 cells assessed as fold change at 15 uM incubated for 24 hrs by cDNA microarray analysis relative to control; format: functional
[11] = tested on: HCT-116; assay: Downregulation of PEG10 gene expression in human HCT116 cells assessed as fold change at 15 uM incubated for 24 hrs by cDNA microarray analysis relative to control; format: functional
[12] = tested on: HCT-116; assay: Downregulation of KITLG gene expression in human HCT116 cells assessed as fold change at 15 uM incubated for 24 hrs by cDNA microarray analysis relative to control; format: functional
[13] = tested on: HCT-116; assay: Induction of cell cycle arrest in human HCT116 cells assessed as accumulation at S phase at 20 uM incubated for 24 hrs by propidium iodide staining based flow cytometry (reference value: 21.2%); format: functional
[14] = tested on: HCT-116; assay: Induction of cell cycle arrest in human HCT116 cells assessed as accumulation at sub-G1 phase at 20 uM incubated for 24 hrs by propidium iodide staining based flow cytometry (reference value: 4.8%); format: functional
[15] = tested on: HCT-116; assay: Induction of cell cycle arrest in human HCT116 cells assessed as accumulation at G0/G1 phase at 10 uM incubated for 24 hrs by propidium iodide staining based flow cytometry (reference value: 54.7%); format: functional
[16] = tested on: HCT-116; assay: Induction of cell cycle arrest in human HCT116 cells assessed as accumulation at sub-G1 phase at 5 uM incubated for 24 hrs by propidium iodide staining based flow cytometry (reference value: 4.8%); format: functional
[17] = tested on: HCT-116; assay: Downregulation of CYP24A1 gene expression in human HCT116 cells assessed as fold change at 15 uM incubated for 24 hrs by cDNA microarray analysis relative to control; format: functional
[18] = tested on: HCT-116; assay: Downregulation of FAM111B gene expression in human HCT116 cells assessed as fold change at 15 uM incubated for 24 hrs by cDNA microarray analysis relative to control; format: functional
[19] = tested on: SNU-638; assay: Antiproliferative activity against human SNU638 cells after 72 hrs by sulforhodamine B assay; format: functional, cell-based; settings: SNU-638, 72 h
[20] = tested on: HCT-116; assay: Decrease in cell cycle associated protein expression in human HCT116 cells assessed as reduction in CDK2 expression at 5 to 20 uM after 24 hrs by Western blot analysis; format: functional, cell-based
[21] = tested on: HCT-116; assay: Induction of cell cycle arrest in human HCT116 cells assessed as accumulation at S phase at 5 uM incubated for 18 hrs by propidium iodide staining based flow cytometry (reference value: 26.8%); format: functional
[22] = tested on: Mus musculus; assay: In vivo modulation of MCM4 in tumor of BALB/c nude mouse xenografted with human HCT116 cells assessed as downregulation of MCM4 level at 5 to 10 m/kg, ip administered thrice a week for 3.5 weeks by Western blot analysis; format: functional, organism-based
[23] = tested on: MRC5; assay: Antiproliferative activity against human MRC5 cells after 72 hrs by sulforhodamine B assay; format: cell-based; settings: MRC5, 72 h
[24] = tested on: HCT-116; assay: Induction of apoptosis in human HCT116 cells assessed as increase in cleaved caspase 8 level after 24 hrs by Western blot analysis; format: functional, cell-based
[25] = tested on: HCT-116; assay: Downregulation of HSPA1A gene expression in human HCT116 cells assessed as fold change at 15 uM incubated for 24 hrs by cDNA microarray analysis relative to control; format: functional
[26] = tested on: MDA-MB-231; assay: Antiproliferative activity against human MDA-MB-231 cells after 72 hrs by sulforhodamine B assay; format: functional, cell-based; settings: MDA-MB-231, 72 h
[27] = tested on: HCT-116; assay: Induction of apoptosis in human HCT116 cells assessed as increase in cleaved caspase 7 level after 24 hrs by Western blot analysis; format: functional, cell-based
[28] = tested on: HCT-116; assay: Antitumor activity against human HCT116 cells xenografted in BALB/c nude mouse assessed as reduction in tumor volume at 5 to 10 mg/kg, ip administered thrice a week for 3.5 weeks and measured […] by caliper method; format: functional, organism-based
[29] = tested on: HCT-116; assay: Downregulation of CDCA7 gene expression in human HCT116 cells assessed as fold change at 15 uM incubated for 24 hrs by cDNA microarray analysis relative to control; format: functional
[30] = tested on: Mus musculus; assay: In vivo modulation of Skp2-p27 axis in tumor of BALB/c mouse xenografted with human HCT116 cells assessed as upregulation of p27 mRNA level at 5 to 10 m/kg, ip administered thrice a week for 3.5 weeks by RT-PCR method; format: functional, organism-based
[31] = Toxicity in BALB/c nude mouse assessed as changes in body weight at 5 to 10 mg/kg, ip administered thrice a week for 3.5 weeks; format: organism-based; settings: in vivo, 588 h
[32] = tested on: HCT-116; assay: Induction of cell cycle arrest in human HCT116 cells assessed as accumulation at G2/M phase at 20 uM incubated for 18 hrs by propidium iodide staining based flow cytometry (reference value: 25.1%); format: functional
[33] = tested on: HCT-116; assay: Downregulation of DKK1 gene expression in human HCT116 cells assessed as fold change at 15 uM incubated for 24 hrs by cDNA microarray analysis relative to control; format: functional
[34] = tested on: HCT-116; assay: Induction of cell cycle arrest in human HCT116 cells assessed as accumulation at G2/M phase at 10 uM incubated for 24 hrs by propidium iodide staining based flow cytometry (reference value: 15.7%); format: functional
[35] = tested on: Mus musculus; assay: In vivo modulation of Skp2-p27 axis in tumor of BALB/c nude mouse xenografted with human HCT116 cells assessed as downregulation of Skp2 mRNA level at 5 to 10 m/kg, ip administered thrice a week for 3.5 weeks by RT-PCR method; format: functional, organism-based

For CN[C@H](C(=O)N[C@H](C(=O)N[C@@H]1C(=O)N(C)[C@@H]([C@@H](C)O)C(=O)N[C@@H](C(C)C)C(=O)N(C)[C@@H](CC(C)C)C(=O)N[C@@H](C(C)C)C(=O)N(C)[C@@H](C(C)C)C(=O)N(C)[C@@H](Cc2c[nH]c3cccc(OC)c23)C(=O)N[C@@H](C(C)C)C(=O)N[C@@H]([C@H](O)c2ccccc2)C(=O)N[C@@H](C(C)C)C(=O)O[C@@H]1C)C(C)C)C(C)C (H-[NMeV]VT[NMeT]V[NMeL]V[NMeV][NMeTrp(4-OMe)]V[Phe(3R-OH)]V; ester 3-C), the Activity [1] was “Dose-dependent effect”, the inhibition [2] was “Dose-dependent effect” and the “fold change (FC)” value [3] was 4.613. For the same compound, the Activity [4] was 15.4%, the inhibition [5] was “Active” and the inhibition [6] was “Active”. For the same compound, the Activity [7] was “Active”, the Activity [8] was “Dose-dependent effect” and the “fold change (FC)” value [9] was 4.856. The “fold change (FC)” value [10] was 4.476, the “fold change (FC)” value [11] was 4.917 and the “fold change (FC)” value [12] was 4.177. For the same compound, the Activity [13] was 24.1%, the Activity [14] was 31.4% and the Activity [15] was 62.7%. For the same compound, the Activity [16] was 19%, the “fold change (FC)” value [17] was 18.5 and the “fold change (FC)” value [18] was 7.557. For the same compound, the IC50 [19] was 9.38 µM, the inhibition [20] was “Active” and the Activity [21] was 27.5%. The inhibition [22] was “Active”, the IC50 [23] was over 50 µM and the Activity [24] was “Dose-dependent effect”. The “fold change (FC)” value [25] was 4.43, the IC50 [26] was 9.89 µM and the Activity [27] was “Dose-dependent effect”. The Activity [28] was “Active”, the “fold change (FC)” value [29] was 4.702 and the Activity [30] was “Active”. The Activity [31] was “Non-Toxic”, the Activity [32] was 16.9% and the “fold change (FC)” value [33] was 4.144. For the same compound, the Activity [34] was 16.1% and the inhibition [35] was “Active”.
